Assay: In vivo biodistribution of ^225Ac complexes after intravenous injection
Design: species or system C57BL/6 mice
Procedure: In Vivo Biodistribution of ^225Ac Complexes of Macropa and DOTA. All experiments were approved by the Institutional Animal Care Committee (IACC) of the University of British Columbia and were performed in accordance with the Canadian Council on Animal Care Guidelines. A total of 9 female C57BL/6 mice (6-8 weeks old, 20-25 g) were used for the biodistribution study of each radiometal complex, n=3 for each time point.
Macropa (100 μL of a 1 mg/mL solution in NH4OAc) was diluted with 387 μL of NH4OAc (1 M, pH 7), and an aliquot (203 μL) of ^225Ac(NO3)3 (˜157 kBq) was then added; the pH of this solution was adjusted to 6.5-7 by the addition of 1 M NaOH (210 μL, trace metal grade). After 5 min at ambient temperature, the reaction solution was analyzed by TLC (0.4 M pH 4 sodium citrate as the eluent), which confirmed >95% radiochemical yield. The reaction was allowed to proceed overnight, and the radiochemical yield was again confirmed to be >95% the following morning. At this time, mice were anesthetized by 2% isoflurane, and approximately 100 μL (10-15 kBq) of the [^225Ac(macropa)]^+ complex were injected into the tail vein of each mouse. After injection, mice were allowed to recover and roam freely in their cages, and were euthanized by CO2 inhalation at 15 min, 1 h, or 5 h (n=3 at each time point) post-injection. Blood was collected by cardiac puncture and placed into an appropriate test tube for scintillation counting. Tissues collected included heart, liver, kidneys, lungs, small intestine, large intestine, brain, bladder, spleen, stomach, pancreas, bone, thyroid, tail, urine, and feces. Tissues were weighed and then counted with a calibrated gamma counter (Packard, Cobra II model 5002) using three energy windows: 60-120 keV (window A), 180-260 keV (window B), and 400-480 keV (window C). Counting was performed both immediately after sacrifice and after 7 days; counts were decay corrected from the time of injection and then converted to the percentage of injected dose (% ID) per gram of tissue (% ID/g). No differences were noted between the data; therefore, the biodistributions are reported using the data acquired immediately using window A.
The biodistribution studies of [^225Ac(DOTA)]^− and ^225Ac(NO3)3 were carried out as described above for [^225Ac(macropa)]^+, with the following modifications. [^225Ac(DOTA)]^− was prepared by adding ^225Ac(NO3)3 (338 μL, 1.1 MBq) to a solution of DOTA (100 μg, 20 mg/mL in H2O) in NH4OAc (467 μL, 0.15 M, pH 7). The pH of the solution was adjusted to 7 using NH4OAc (150 μL, 1 M, pH 7) and the solution was heated at 85° C. for 45 min. RCY>99% was confirmed by TLC as described above. [^225Ac(DOTA)]^− was diluted with saline to a final concentration of 0.05 MBq/100 μL, and 100 μL were injected into each mouse. ^225Ac(NO3)3 (˜58 μL, 0.4 MBq) was diluted and injected in the same manner as [^225Ac(DOTA)]^−. One mouse that was to be euthanized at the 5 h time point in the [^225Ac(DOTA)]^− study died shortly after injection. In the same manner, one mouse that was to be euthanized at the 1 h time point in the ^225Ac(NO3)3 study died.
The in vivo stability [^225Ac(macropa)]^+ was examined by comparing its biodistribution to those of ^225Ac(NO3)3 and [^225Ac(DOTA)]^−. C57BL/6 mice were injected via tail vein with 10-50 kBq of each radiometal complex and were sacrificed after 15 min, 1 h, or 5 h. The amount of ^225Ac retained in each organ was quantified by gamma counting and reported as the percent of injected dose per gram of tissue (% ID/g). The results of these studies are compiled in Tables 1-3. Inadequate stability of an ^225Ac complex leading to the loss of radioisotope in vivo is manifested by the accumulation of ^225Ac in the liver, spleen, and bone of mice.^[11,12,32] […] The biodistribution profile of [^225Ac(macropa)]^+ (FIG. 3B) differs markedly from that of ^225Ac(NO3)3. […]

[1] = 1 h after i.v. injection, energy window B (180-260 keV)
[2] = 1 h after i.v. injection, energy window C (400-480 keV)
[3] = 5 h after i.v. injection, energy window A (60-120 keV)
[4] = 5 h after i.v. injection, energy window B (180-260 keV)
[5] = 5 h after i.v. injection, energy window C (400-480 keV)
[6] = i.v. injection, C57BL/6 mice, up to 5 h

## O=[N+]([O-])[O-].O=[N+]([O-])[O-].O=[N+]([O-])[O-].[225Ac] [^225Ac(NO3)3]
[1]
  % ID/g in lungs: 8.4426 % ID/g
  % ID/g in pancreas: 2.1579 % ID/g
  % ID/g in small intestines: 1.5192 % ID/g
  % ID/g in spleen: 37.1540 % ID/g
  % ID/g in stomach: 1.5867 % ID/g
  % ID/g in tail: 6.4201 % ID/g
  % ID/g in thyroids: 5.7426 % ID/g
  % ID/g in urine: 7.0564 % ID/g
[2]
  % ID/g in bladder: 2.2929 % ID/g
  % ID/g in blood: 11.3736 % ID/g
  % ID/g in bone (femur + joint): 2.7213 % ID/g
  % ID/g in brain: 0.4402 % ID/g
  % ID/g in feces: 0.1122 % ID/g
  % ID/g in heart: 3.3464 % ID/g
  % ID/g in kidneys: 6.2070 % ID/g
  % ID/g in large intestines: 0.4366 % ID/g
  % ID/g in liver: 23.6180 % ID/g
  % ID/g in lungs: 5.2078 % ID/g
  % ID/g in pancreas: 1.8508 % ID/g
  % ID/g in small intestines: 3.5548 % ID/g
  % ID/g in spleen: 38.1082 % ID/g
  % ID/g in stomach: 2.3350 % ID/g
  % ID/g in tail: 9.0877 % ID/g
  % ID/g in thyroids: 0.0000 % ID/g
  % ID/g in urine: 104.9103 % ID/g
[3]
  % ID/g in bladder: 1.4947 % ID/g
  % ID/g in blood: 1.9886 % ID/g
  % ID/g in bone (femur + joint): 3.5460 % ID/g
  % ID/g in brain: 0.0452 % ID/g
  % ID/g in feces: 0.9445 % ID/g
  % ID/g in heart: 1.3450 % ID/g
  % ID/g in kidneys: 4.6910 % ID/g
  % ID/g in large intestines: 0.6479 % ID/g
  % ID/g in liver: 59.8156 % ID/g
  % ID/g in lungs: 4.1871 % ID/g
  % ID/g in pancreas: 0.4874 % ID/g
  % ID/g in small intestines: 1.3704 % ID/g
  % ID/g in spleen: 62.9614 % ID/g
  % ID/g in stomach: 2.6131 % ID/g
  % ID/g in tail: 23.4055 % ID/g
  % ID/g in thyroids: -2.7052 % ID/g
  % ID/g in urine: 4.8267 % ID/g
[4]
  % ID/g in bladder: 1.5234 % ID/g
  % ID/g in blood: 2.0018 % ID/g
  % ID/g in bone (femur + joint): 3.8533 % ID/g
  % ID/g in brain: 0.0290 % ID/g
  % ID/g in feces: 1.0201 % ID/g
  % ID/g in heart: 1.3948 % ID/g
  % ID/g in kidneys: 3.8752 % ID/g
  % ID/g in large intestines: 0.6744 % ID/g
  % ID/g in liver: 62.0765 % ID/g
  % ID/g in lungs: 4.3379 % ID/g
  % ID/g in pancreas: 0.4455 % ID/g
  % ID/g in small intestines: 1.2201 % ID/g
  % ID/g in spleen: 65.9117 % ID/g
  % ID/g in stomach: 2.5322 % ID/g
  % ID/g in tail: 25.4744 % ID/g
  % ID/g in thyroids: −4.6044 % ID/g
  % ID/g in urine: 3.3142 % ID/g
[5]
  % ID/g in bladder: 3.4975 % ID/g
  % ID/g in blood: 2.1769 % ID/g
  % ID/g in bone (femur + joint): 3.5851 % ID/g
  % ID/g in brain: 0.0430 % ID/g
  % ID/g in feces: 0.8535 % ID/g
  % ID/g in heart: 1.2018 % ID/g
  % ID/g in kidneys: 4.2061 % ID/g
  % ID/g in large intestines: 1.0259 % ID/g
  % ID/g in liver: 54.1727 % ID/g
  % ID/g in lungs: 5.4923 % ID/g
  % ID/g in pancreas: 0.4643 % ID/g
  % ID/g in small intestines: 1.2922 % ID/g
  % ID/g in spleen: 62.2357 % ID/g
  % ID/g in stomach: 2.0358 % ID/g
  % ID/g in tail: 28.4443 % ID/g
  % ID/g in thyroids: -0.4455 % ID/g
  % ID/g in urine: 5.8548 % ID/g
[6]
  clearance from blood / mice (in words): slow blood clearance and excretion
  organ accumulation (in words): large accumulation in the liver and spleen

From US11554182B2, “Macrocyclic complexes of alpha-emitting radionuclides and their use in targeted radiotherapy of cancer” (CORNELL UNIVERSITY, priority 2017, dated 2023)
